“And” between values parts separate entries of the source, which are not always exact repeats. Equal values may be shown once.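 Briefly, cells in 96-well plates were exposed to five compound concentrations for 48 h, and endpoints were estimated by linear interpolation. At the GI50, growth is halved. TGI: concentration producing complete growth inhibition.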
Tests used:
Assay in all cases: NCI tumour cell line growth inhibition, 48 h
HL-60(TB) leukemia = tested on: HL-60(TB) leukemia
EKVX NSCLC = tested on: EKVX NSCLC
TK-10 renal = tested on: TK-10 renal
A498 renal = tested on: A498 renal
SF-539 CNS = tested on: SF-539 CNS
NCI-H226 lung = tested on: NCI-H226 lung
SNB-75 CNS = tested on: SNB-75 CNS
786-0 renal = tested on: 786-0 renal
RPMI-8226 leukemia = tested on: RPMI-8226 leukemia
IGROV1 ovarian = tested on: IGROV1 ovarian

Row | SMILES | GI50 (HL-60(TB) leukemia) [µM] | TGI (HL-60(TB) leukemia) [µM] | TGI (EKVX NSCLC) [µM] | GI50 (TK-10 renal) | TGI (TK-10 renal) | GI50 (A498 renal) [µM] | TGI (A498 renal) | GI50 (SF-539 CNS) | TGI (SF-539 CNS) | GI50 (NCI-H226 lung) | TGI (NCI-H226 lung) | GI50 (SNB-75 CNS) | TGI (SNB-75 CNS) | GI50 (786-0 renal) | TGI (786-0 renal) | GI50 (RPMI-8226 leukemia) | TGI (RPMI-8226 leukemia) | GI50 (IGROV1 ovarian) | TGI (IGROV1 ovarian) | GI50 (EKVX NSCLC)
1 | CCN1C(=O)N(CC)C2C1NN=c1s/c(=C\c3cccs3)c(=O)n12 (centres undefined) | 0.225 | 0.707 | > 100 | > 100 µM | > 100 µM | 0.021 | 0.0813 µM | 0.0949 µM | 0.812 µM | 2.76 µM | > 23 µM | 0.0976 µM | > 100 µM | 1.03 µM | > 100 µM | 0.412 µM | > 100 µM | 0.217 µM | > 100 µM | –
2 | Cc1cc2c(cc1C)[n+](=O)c(C(=O)/C=C/c1ccc3c(c1)OCO3)c(C)n2[O-] | – | > 100 | > 100 | – | 53.3 µM | – | > 100 µM | – | > 100 µM | – | > 100 µM | – | 39.9 µM | – | > 100 µM | – | > 100 µM | – | > 81.5 µM | –
3 | O=P(O)(O)OCC1OC(n2cnc3c(NCc4ccco4)ncnc32)C(O)C1O (centres undefined) | 0.231 | 0.601 | > 41 | 1.77 µM | > 43.9 µM | 3.32 | 11.7 µM | 2.7 µM | 12.5 µM | 7.13 µM | > 56.5 µM | 4.18 µM | > 30.6 µM | 3.35 µM | > 49.9 µM | 0.298 µM | 2.66 µM | 1.39 µM | – | 2.82 µM
4 | CCC#CC[C@H](O)C/C=C1/C(=O)C=C[C@@H]1C/C=C\CCCC(=O)OC | 1.31 | 3.91 | 7.73 | 1.66 µM | 3.97 µM | 6.82 | 13.7 µM | 1.31 µM | 3.79 µM | 0.863 µM | 1.9 µM | 5.07 µM | 13.4 µM | 1.22 µM | 2.67 µM | 0.657 µM | 2.86 µM | 1.93 µM | 7.84 µM | 1.76 µM
5 | CC(C)(CN1CCOCC1)C(=O)/C=C/c1ccc(/C=C/C(=O)C(C)(C)CN2CCOCC2)cc1 | – | 3.92 | 4.12 | – | 3.62 µM | – | 3.6 µM | – | 3.69 µM | – | 5.22 µM | – | 4.44 µM | – | 4.11 µM | – | 7.63 µM | – | 4.47 µM | –
6 | O=C1Nc2ccccc2/C1=C\c1cccc(/C=C2/C(=O)Nc3ccccc32)n1 | 0.452 | – | 8.74 | 0.416 µM | 1.41 µM | 1.5 | 2.9 µM | 0.966 µM | 2.23 µM | 1.53 µM | 5.13 µM | 1.32 µM | 3.46 µM | 1.08 µM | 2.49 µM | 0.232 µM | 0.699 µM | 0.44 µM | 1.67 µM | 0.692 µM
7 | COc1ccc(C(C#N)=C2C=CC(=NO)C=C2)cc1 | 3.08 | 57.5 | 32.7 | 3.87 µM | 8.72 µM | 6.39 | 25.4 µM | 3.79 µM | 13.8 µM | 3.97 µM | 15.2 µM | 5.3 µM | 18.9 µM | 4.95 µM | 15.3 µM | 3.2 µM | 17.9 µM | 2.8 µM | 8 µM | 17.6 µM
8 | CC(N)Cc1ccc(Cl)cc1 (centres undefined) | – | > 100 | > 100 | – | > 100 µM | – | > 100 µM | – | > 100 µM | – | > 100 µM | – | > 100 µM | – | > 100 µM | – | > 100 µM | – | > 100 µM | –
9 | CC(CN(C)C)S(=O)(=O)c1ccc(-c2cnc(N)c(C(=O)Nc3ccccc3)n2)cc1 (centres undefined) | 3.05 | 11 | > 100 | 11.5 µM | > 57.2 µM | 2.41 | 9.02 µM | 2.75 µM | 9.76 µM | 12.9 µM | 35.4 µM | 2.58 µM | 35.5 µM | 2.37 µM | 15.2 µM | 13.8 µM | 48.9 µM | 3.15 µM | 36 µM | 31.1 µM
10 | Cc1cc(Br)cc(C)c1NC(=O)C(=O)C(C(=O)c1ccncc1)C1OC(=O)c2ccccc21 (centres undefined) | – | > 100 | > 100 | – | > 100 µM | – | > 100 µM | – | – | – | > 100 µM | – | – | – | > 100 µM | – | > 100 µM | – | > 100 µM | –
11 | CN(C)c1ccc(C(=N)c2ccc(N(C)C)cc2)cc1 | 3.3 | 14.8 | > 100 | 4.47 µM and 7.22 µM | 38.9 µM and 91.6 µM | – | 7.45 µM and 4.58 µM | 2.88 µM and 3.5 µM | 11.5 µM and 25.7 µM | 7.81 µM and 9.07 µM | 51.6 µM and 47.2 µM | 1.65 µM and 1.63 µM | 11.4 µM and 7.35 µM | 6.12 µM and 8.26 µM | 24.4 µM and 32 µM | 1.8 µM and 2.28 µM | 7.43 µM and 10.9 µM | 3.45 µM and 7.32 µM | 31.7 µM and > 100 µM | 5.33 µM and 5.17 µM
12 | O=C1NC(O)c2ccccc2O1 (centres undefined) | – | > 100 | > 100 | – | > 100 µM | – | > 100 µM | – | > 100 µM | – | > 100 µM | – | > 100 µM | – | > 100 µM | – | – | – | > 100 µM | –
13 | CC/C=C\C[C@H](O)C/C=C1/C(=O)C=C[C@@H]1C/C=C\CCCC(=O)OC(C)C | 0.824 | 6.71 | 11.6 | 3.54 µM | 9.31 µM | 3 | 8.12 µM | – | – | 2.58 µM | 6.08 µM | 4.78 µM | 19.7 µM | 1.9 µM | 3.72 µM | 0.371 µM | 0.939 µM | 2.43 µM | 7.75 µM | 3.04 µM
14 | C=C(C)[C@@H]1C/C=C(/CO)CC[C@H]2O[C@]2(C)CC/C=C(\C)CC1 | 8.12 | 24 | 36 | 9.74 µM | 32.8 µM | 10.4 | 24.3 µM | 18 µM | 33.7 µM | 19.7 µM | 43.7 µM | 12.1 µM | 31.3 µM | 15.4 µM | 34.2 µM | – | – | 18.6 µM | 41.3 µM | 12.9 µM

Reference: PubChem BioAssay (NCI)
